Laboratory results: article PMC6584481, “Quercetin protects rats from catheter‐related Staphylococcus aureus infections by inhibiting coagulase activity” (Journal of Cellular and Molecular Medicine, 2019)

What was measured:
Type in all cases: binding
[1] = target: T1, Coagulase (Coa) (Staphylococcus aureus, UniProt P17855, L223A); assay: fluorescence spectroscopy quenching (KA); conditions: read-out: L221A (converted)
T1 sequence (P17855 27-715 L223A): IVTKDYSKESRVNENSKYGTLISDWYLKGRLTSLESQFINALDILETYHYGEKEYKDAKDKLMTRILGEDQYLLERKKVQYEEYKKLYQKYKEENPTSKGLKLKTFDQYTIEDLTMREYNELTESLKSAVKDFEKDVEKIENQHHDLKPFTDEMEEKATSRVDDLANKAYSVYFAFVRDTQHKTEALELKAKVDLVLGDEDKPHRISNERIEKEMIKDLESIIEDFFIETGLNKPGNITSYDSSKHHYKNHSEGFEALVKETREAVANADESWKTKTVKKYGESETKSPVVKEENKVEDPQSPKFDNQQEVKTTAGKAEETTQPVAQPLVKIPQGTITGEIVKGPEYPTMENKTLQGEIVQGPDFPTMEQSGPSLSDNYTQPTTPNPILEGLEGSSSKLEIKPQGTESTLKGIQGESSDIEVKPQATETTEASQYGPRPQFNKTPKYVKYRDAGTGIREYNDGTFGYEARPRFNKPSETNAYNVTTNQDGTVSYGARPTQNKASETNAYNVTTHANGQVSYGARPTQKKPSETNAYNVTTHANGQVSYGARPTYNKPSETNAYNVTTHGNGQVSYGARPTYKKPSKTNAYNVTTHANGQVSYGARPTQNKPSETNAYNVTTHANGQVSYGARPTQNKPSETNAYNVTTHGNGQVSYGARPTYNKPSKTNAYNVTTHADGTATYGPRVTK

[2] = target: Coagulase (Coa) (Staphylococcus aureus, UniProt P17855); assay: fluorescence spectroscopy quenching (KA); thermal shift of […]°C; plasma/blood coagulation inhibition with recombinant Coa; conditions: read-out: WT-Coa (converted)
[3] = target: T2, Coagulase (Coa) (Staphylococcus aureus, UniProt P17855, H230A); assay: fluorescence spectroscopy quenching (KA); conditions: read-out: H228A (converted)
T2 sequence (P17855 27-715 H230A): T1 sequence (P17855 27-715 L223A)

Question: With `O=c1c(O)c(-c2ccc(O)c(O)c2)oc2cc(O)cc(O)c12` [quercetin, 3,3′,4′,5,7‐pentahydroxyflavone] as the compound, how does the Kd [1] read?
Answer: The Kd was 32.3 µM.

Question: And the Kd [2]?
Answer: The Kd was 21.7 µM.

Question: What about the Kd [3] of the same compound?
Answer: Its Kd is 25 µM.
